# Results from patent US20040141995A1, “MHC class I-restricted and MHC class II-restricted EBNA1 peptides” (priority 2002, published 2004).
# Like-named read-outs stand apart in the source and are kept apart here.
# Experiments:
# Format in all cases: cell-based, human
# [1] = system: 1359mel-specific CD8+ T cell recognition of 1359mel cells
# Procedure: (§1) Target cells were incubated with various protease inhibitors for 2 h, washed and co-cultured with CD8^+ T cells overnight for IFN-γ release assays. Solvents used to solubilize inhibitors were also used as controls. […] Target cells were treated with different concentrations of protease inhibitors. After washes, the treated cells were co-cultured with M3-W1-B9 CD8^+ T cells overnight for IFN-γ release assays.
# To test whether TPCK or AEBSF affected T cell recognition of other antigens, 1359mel were treated with the same concentrations of TPCK or AEBSF as described in FIG. 14A. […] AEBSF is an irreversible, specific inhibitor of serine proteases, while TPCK is an irreversible inhibitor of chymotrypsin and many other serine and cysteine proteases.
# [2] = system: M3-W1-B9 CD8+ T cell recognition of HEK293/B8/EBNA1-GFP, LCL111 and 1359mel/EBNA1-GFP target cells; assay: Effect of inhibitors on M3W1-B9 CD8+ T cell recognition of EBNA1-expressing target cells (IFN-γ release); conditions: for dose dependence of inhibition of M3-W1-B9 CD8+ T cell recognition of HEK293/B8/EBNA1-GFP target cells: different concentrations of protease inhibitors (FIG. 14C); for effect on M3W1-B9 CD8+ T cell recognition of HEK293 transfected with HLA-B8 plus EBNA1-GFP: target cells treated with inhibitor, co-cultured with T cells overnight, IFN-γ release
# Procedure: (§2) HEK 293 cells co-transfected with EBNA1-GFP were treated with various concentrations of ZAL inhibitor for 10 h. After washing, cells were incubated with T cells overnight for IFN-γ release assays. Various dilutions of DMSO were used as controls. T cell activity in the absence of inhibitor was used as 100% activity.
# (§3) HLA-B8 expressing HEK293/EBNA1-GFP target cells were treated with an emetine inhibitor at three concentrations for 1h. After three washings, cells were co-cultured with M3-W1-B9 CD8^+ T cells overnight for IFN-γ release assays. […] HLA-B8 positive 1359 cells with the EBNA1-P518-526 peptide after the treatment of 1359mel cells were pulsed with 3 different concentration of emetine. FIG. 13B illustrates the determination of the sensitivity of recognition of TRP2-specific CD8 T cells to the treatment with emetine. 1363mel cells were treated with 3 different concentrations of emetine. After 3 washes, the cells were co-cultured with TRP2-specific CD8 ^+ T cells. The treated cells pulsed with a TRP2 peptide were used to examine the effect of emetine on recognition of MHC class I/TRP2 complexes on the cell surface; and
# as §1
# Target cells were incubated in the absence or presence of various concentrations of inhibitors for different period of time, depending on the type of inhibitors used. The cells were then washed and counted and co-cultured with T cells overnight for IFN-γ release assays. The solvents used to dissolve the inhibitors, such as DMSO, methanol and ethanol were also used as controls.
# (§4) HEK293 cells were transfected with EBNA1-GFP and HLA-B8 cDNAs, and then treated them with different concentrations of ZAL and lactacystin, specific inhibitors of proteasomes. […] To exclude the potential nonspecific effect of ZAL on T cell recognition, the effects of ZAL inhibitor were tested on melanoma-reactive TIL102-CD4^+ T cells, which recognize a MHC class II-restricted epitope on the cell surface of 102mel tumor cells, and of P3-B7 CD4^+ T cells, which recognize HLA-DP3 expressing HEK293 cells transfected with Ii-EBNA1 as target cells. […] The effects of lactacystin, another specific proteasome inhibitor, were also tested on T cell recognition.
# HLA-B8 expressing HEK293/EBNA1-GFP cells were treated with different concentrations of irreversible (emetine) and reversible (puromycin and cycloheximide) protein synthesis inhibitors for 1 h. After washing to remove inhibitors, the treated cells were co-cultured with antigen-specific CD8^+ T cells. […] Since blocking protein synthesis should rapidly decrease the peptide supply required for the export of MHC class I molecules from the ER to the cell surface as well as synthesis of MHC class I molecules, the treatment of cells with emetine would decrease the overall antigen presentation by MHC class I molecules.
# [3] = system: TRP2-specific CD8+ T cell recognition of 1363mel cells; assay: Effect of emetine on recognition of 1363mel cells by TRP2-specific CD8+ T cells
# Procedure: as §3
# HLA-B8 positive 1359mel cells were pulsed with the EBNA1-P518-526 peptide after the cells were treated with different concentrations of emetine and washed. […] 1363mel cells (TRP2^+ and HLA-A2^+) were treated with different concentrations of emetine, and then tested for their ability to stimulate TRP2-specific CD8^+ T cells. […] However, there was only 30% inhibition of T cell recognition at 1 μM emetine treatment compared with over 90% inhibition of EBNA1-specific CD8^+ T cells at the same concentration of emetine (FIG. 13A). […] On the other hand, the processing and presentation of the TRP2 and CD4^+ T cell EBNA1 epitopes are less dependent on the production of short-lived DRiPs.
# [4] = system: P3-B7 CD4+ T cell recognition of HEK293/DP3/Ii-EBNA1 target cells; assay: Effect of inhibitors on P3-B7 CD4+ T cell recognition of EBNA1 target cells; conditions: Homo sapiens, CD4+ T cell; 1 μM emetine; read-out: inhibition of EBNA1-specific P3-B7 CD4+ T cell recognition
# Procedure: as §2, §4
# HLA-B8 positive 1359mel cells were pulsed with the EBNA1-P518-526 peptide after the cells were treated with different concentrations of emetine and washed. […] 1363mel cells (TRP2^+ and HLA-A2^+) were treated with different concentrations of emetine, and then tested for their ability to stimulate TRP2-specific CD8^+ T cells. […]
SMILES,inhibition of recognition of 1359mel cells by 1359mel-specific CD8+ T cells [1],dose dependence of inhibition of M3-W1-B9 CD8+ T cell recognition of HEK293/B8/EBNA1-GFP target cells [2],effect on M3W1-B9 CD8+ T cell recognition of HEK293 transfected with HLA-B8 plus EBNA1-GFP ([2]; washed),inhibition of recognition of 1359mel cells by 1359mel-specific CD8+ T cells ([1]; same inhibitor concentrations as FIG. 14A),effect on T cell recognition of TRP2 peptide-pulsed target cells after inhibitor treatment [3],"inhibition at 1 µM ([3]; Homo sapiens, T-cell, 1 μM emetine, read-out: inhibition of recognition of 1363mel target cells by TRP2-specific CD8+ T cells) [%]",concentration dependence of inhibition of recognition of 1363mel target cells by TRP2-specific CD8+ T cells ([3]; different concentrations of emetine),inhibition of M3W1-B9 CD8+ T cell recognition of HLA-B8 expressing HEK293/EBNA1-GFP target cells ([2]; 5 μM inhibitor for 1 h),"inhibition at 1 µM ([2]; Homo sapiens, T-cell, 1 h, 1 μM inhibitor for 1 h, read-out: inhibition of M3W1-B9 CD8+ T cell recognition of HLA-B8 expressing HEK293/EBNA1-GFP target cells) [%]","effect on T cell recognition of 1359mel cells pulsed with EBNA1-P518-526 peptide after inhibitor treatment ([2]; different concentrations of emetine, washed, then peptide-pulsed)",inhibition at 1 µM [4] [%]
Cc1ccc(S(=O)(=O)N[C@@H](Cc2ccccc2)C(=O)CCl)cc1 [TPCK],No inhibition,in a dose-dependent manner,significantly blocked,–,–,–,–,–,–,–,–
NCCc1ccc(S(=O)(=O)F)cc1 [AEBSF],–,in a dose-dependent manner,significantly blocked,No inhibition,–,–,–,–,–,–,–
CC[C@H]1CN2CCc3cc(OC)c(OC)cc3[C@@H]2C[C@@H]1C[C@H]1NCCc2cc(OC)c(OC)cc21 [emetine],–,–,–,–,slightly inhibited,30,increased with the increasing concentrations,completely inhibited,94,slightly inhibited,20
